From patent US11634412B2, “3-phosphoglycerate dehydrogenase inhibitors and uses thereof” (Raze Therapeutics, Inc., priority 2016, dated 2023)

Each molecule was assayed against T1, Full length (FL) 3-Phosphoglycerate Dehydrogenase (PHGDH) (Homo sapiens, UniProt O43175) (assay: Full length (FL) PHGDH Diaphorase coupled assay (500 uM NAD)). Details: full-length PHGDH 5 nM, 30° C. 60 minutes, resorufin fluorescence.
T1 construct: Full length (FL) 3-Phosphoglycerate Dehydrogenase (PHGDH) Diaphorase coupled assay (500 uM NAD)
T1 sequence (O43175 1-533): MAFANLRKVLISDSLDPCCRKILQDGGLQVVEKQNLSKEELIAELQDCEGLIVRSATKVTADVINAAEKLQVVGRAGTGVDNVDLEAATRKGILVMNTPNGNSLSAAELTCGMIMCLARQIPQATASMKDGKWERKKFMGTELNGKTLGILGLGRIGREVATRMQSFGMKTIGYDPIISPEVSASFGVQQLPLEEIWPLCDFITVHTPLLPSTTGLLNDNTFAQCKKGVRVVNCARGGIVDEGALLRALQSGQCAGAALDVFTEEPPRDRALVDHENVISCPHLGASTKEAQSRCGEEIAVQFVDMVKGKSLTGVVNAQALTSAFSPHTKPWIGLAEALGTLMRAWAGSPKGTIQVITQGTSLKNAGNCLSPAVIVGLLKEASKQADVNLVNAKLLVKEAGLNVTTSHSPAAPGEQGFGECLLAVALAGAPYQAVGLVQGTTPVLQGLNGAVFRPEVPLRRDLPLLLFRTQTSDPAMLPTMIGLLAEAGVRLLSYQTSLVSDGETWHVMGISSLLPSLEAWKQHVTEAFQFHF
Format: biochemical
Method: Full length (FL) 3-Phosphoglycerate Dehydrogenase (PHGDH) Diaphorase coupled assay (500 uM NAD)
PHGDH activity was determined by detecting the NADH produced during the reaction. Diaphorase was used to catalyze the oxidation of NADH with the concomitant reduction of resazurin to the fluorescent product resorufin. Resorufin fluorescence quantitatively reflected the production of NADH by the PHGDH reaction. To drive the forward reaction, two enzymes in the serine synthesis pathway subsequent to PHGDH, Phosphoserine aminotransferase (PSAT1) and phosphoserine phosphatase (PSPH) were also added to the reaction.
Briefly, serial dilution of compounds were incubated in a volume of 20 μL in 384 well plates with the assay mixture containing 5 nM PHGDH, 500 nM PSAT1, 500 nM PSPH, 500 μM NAD^+, 80 uM 3-phosphoglycerate, 1 mM glutamate, 57 uM Resazurin and 0.2 mg/ml Diaphorase in assay buffer containing 50 mM Trisethanoloamine (TEA) pH8.0, 10 mM MgCl2, 0.01% Tween-20 and 0.05% Bovine Serum Albumin (BSA). The plate was then incubated at 30° C. for 60 minutes and resorufin fluorescence was measured at emission wavelength 598 nm following excitation at 525 nm. The positive control consisted of the complete reaction mixture with 4% DMSO and was set to 0% inhibition.
With Cn1c(C(=O)NC2(c3ccc(C4(C(=O)O)CCOC4)cc3)COC2)cc2c(Cl)c(Cl)ccc21 (racemic) [I-2 e125] the IC50 was 1 to 1000 nM.
Cn1c(C(=O)NC2(c3ccc(C(CC4CC4)C(=O)O)cc3)COC2)cc2c(Cl)c(Cl)ccc21 (racemic) [I-3 e124] was tested, and the IC50 was 1 to 1000 nM.
COc1cc2c(cc(C(=O)NC3(c4ccc(C(CC5CC5)C(=O)O)cc4)COC3)n2C)c(Cl)c1Cl (racemic) [I-4 e123] gave an IC50 of 1 to 1000 nM.
COc1cc2c(cc(C(=O)NC3(c4ccc(C(C(=O)O)C5CCC5)cc4)COC3)n2C)c(Cl)c1Cl (racemic) [I-7 e117] showed an IC50 of 1 to 1000 nM.
Cn1c(C(=O)NC2(c3ccc(C(C(=O)O)C4CCC4)cc3)COC2)cc2c(Cl)c(Cl)ccc21 (racemic) [I-8 e116] showed an IC50 of 1 to 1000 nM.
In the case of CC(C)CC(C(=O)O)c1ccc(C2(NC(=O)c3cc4c(Cl)c(Cl)ccc4n3C)COC2)cc1 (racemic) [I-9 e137, (±)-2-(4-(3-(4,5-Dichloro-1-methyl-1H-indole-2-carboxamido)oxetan-3-yl)phenyl)-4-methylpentanoic acid], the IC50 is reported as 1 to 1000 nM.
Cn1c(C(=O)NC2(c3ccc(C(C(=O)O)C4CCC4)cc3)CCOC2)cc2c(Cl)c(Cl)ccc21 (racemic) [I-12 e86] showed an IC50 of 1 to 1000 nM.
For COc1ccc2c(cc(C(=O)NC3(c4ccc(C(C(=O)O)C5CCC5)cc4)COC3)n2C)c1Cl (racemic) [I-13 e111], the IC50 was 1 to 1000 nM.
With CCC(C(=O)O)c1ccc(C2(NC(=O)c3cc4c(Cl)c(Cl)c(OC)cc4n3C)COC2)cc1 (racemic) [I-14 e113] the IC50 was 1 to 1000 nM.
With Cn1c(C(=O)NC2(c3ccc(C(C(=O)O)C4CC4)cc3)CCOC2)cc2c(Cl)c(Cl)ccc21 (racemic) [I-15 e162, (±)-2-Cyclopropyl-2-(4-(3-(4,5-dichloro-1-methyl-1H-indole-2-carboxamido)tetrahydrofuran-3-yl)phenyl)acetic acid] the IC50 was 1 to 1000 nM.
In the case of Cn1c(C(=O)NC2(c3ccc(C(C(=O)O)C4CCCC4)cc3)CCOC2)cc2c(Cl)c(Cl)ccc21 (racemic) [I-16 e87], the IC50 is reported as 1 to 1000 nM.
CCCC(C(=O)O)c1ccc(C2(NC(=O)c3cc4c(Cl)c(Cl)c(OC)cc4n3C)CCOC2)cc1 (racemic) [I-17 e85] gave an IC50 of 1 to 1000 nM.
In the case of CCCC(C(=O)O)c1ccc(C2(NC(=O)c3cc4c(Cl)c(Cl)ccc4n3C)CCOC2)cc1 (racemic) [I-18 e84], the IC50 is reported as 1 to 1000 nM.
CC(C)C(C(=O)O)c1ccc(C2(NC(=O)c3cc4c(Cl)c(Cl)ccc4n3C)CCOC2)cc1 (racemic) [I-19 e94] gave an IC50 of 1 to 1000 nM.
In the case of COc1cc2c(cc(C(=O)NC3(c4ccc(C(C(=O)O)C(C)C)cc4)CCOC3)n2C)c(Cl)c1Cl (racemic) [I-20 e83], the IC50 is reported as 1 to 1000 nM.
Work on COc1ccc2c(cc(C(=O)NC3(c4ccc(C(C(=O)O)C(C)C)cc4)COC3)n2C)c1Cl (racemic) [I-21 e127] yielded an IC50 of 1 to 1000 nM.
COc1cc2c(cc(C(=O)NC3(c4ccc(C(C(=O)O)C5CCCC5)cc4)COC3)n2C)c(Cl)c1Cl (racemic) [I-22 e118] was tested, and the IC50 was 1 to 1000 nM.
Work on CCC(C(=O)O)c1ccc(C2(NC(=O)c3cc4c(Cl)c(Cl)c(OC)cc4n3C)CCOC2)cc1 (racemic) [I-23 e82] yielded an IC50 of 1 to 1000 nM.
CCCC(C(=O)O)c1ccc(C2(NC(=O)c3cc4c(Cl)c(Cl)ccc4n3C)COC2)cc1 (racemic) [I-24 e114] was tested, and the IC50 was 1 to 1000 nM.
With Cn1c(C(=O)NC2(c3ccc(C(C(=O)O)C4CCCC4)cc3)COC2)cc2c(Cl)c(Cl)ccc21 (racemic) [I-25 e136, (±)-2-Cyclopentyl-2-[4-[3-[(4,5-dichloro-1-methyl-indole-2-carbonyl)amino]oxetan-3-yl]phenyl]acetic acid] the IC50 was 1 to 1000 nM.
With COc1ccc2c(cc(C(=O)NC3(c4ccc(C(C(=O)O)C5CCCC5)cc4)COC3)n2C)c1Cl (racemic) [I-26 e130] the IC50 was 1 to 1000 nM.
COc1cc2c(cc(C(=O)NC3(c4ccc(C(C(=O)O)C(C)C)cc4)COC3)n2C)c(Cl)c1Cl (racemic) [I-29 e135, (±)-2-[4-[3-[(4,5-Dichloro-6-methoxy-1-methyl-indole-2-carbonyl)amino]oxetan-3-yl]phenyl]-3-methyl-butanoic acid] gave an IC50 of 1 to 1000 nM.
CC(C)C(C(=O)O)c1ccc(C2(NC(=O)c3cc4c(Cl)c(Cl)ccc4n3C)COC2)cc1 (racemic) [I-30 e134] showed an IC50 of 1 to 1000 nM.
In the case of CCCC(C(=O)O)c1ccc(C2(NC(=O)c3cc4c(Cl)c(OC)ccc4n3C)COC2)cc1 (racemic) [I-31 e112], the IC50 is reported as 1 to 1000 nM.
In the case of CCCC(C(=O)O)c1ccc(C2(NC(=O)c3cc4c(Cl)c(Cl)c(OC)cc4n3C)COC2)cc1 (racemic) [I-38 e115], the IC50 is reported as 1 to 1000 nM.
COc1ccc2c(cc(C(=O)NC3(c4ccc(C(C)(C)C(=O)O)cc4F)CCOC3)n2C)c1Cl (racemic) [I-39 e81] showed an IC50 of 1 to 1000 nM.
COc1ccc2c(cc(C(=O)NC3(c4ccc(C(C)C(=O)O)cc4F)CCOC3)n2C)c1Cl (racemic) [I-40 e55] was tested, and the IC50 was 1 to 1000 nM.
With CCC(C(=O)O)c1ccc(C2(NC(=O)c3cc4c(Cl)c(Cl)ccc4n3C)COC2)cc1 (racemic) [I-42 e133] the IC50 was 1 to 1000 nM.
CCC(C(=O)O)c1ccc(C2(NC(=O)c3cc4c(Cl)c(OC)ccc4n3C)COC2)cc1 (racemic) [I-43 e126] was tested, and the IC50 was 1 to 1000 nM.
In the case of COc1ccc2c(cc(C(=O)NC3(c4ccc(C(C)C(=O)O)cc4F)COC3)n2C)c1Cl (racemic) [I-49 e60], the IC50 is reported as 1 to 1000 nM.
Molecule CC(c1ccc(C2(NC(=O)c3cc4c(Cl)c(Cl)ccc4n3C)CCOC2)cc1)c1nnn[nH]1 (racemic) [I-52 e91] has an IC50 of 1 to 1000 nM.
COc1cc2c(cc(C(=O)NC3(c4ccc(C(C)(C)C(=O)O)cc4F)CCOC3)n2C)c(Cl)c1Cl (racemic) [I-53 e80] gave an IC50 of 1 to 1000 nM.
Cn1c(C(=O)NC2(c3ccc(C(C)(C)C(=O)O)cc3F)CCOC2)cc2c(Cl)c(Cl)ccc21 (racemic) [I-54 e79] was tested, and the IC50 was 1 to 1000 nM.
With COc1cc2c(cc(C(=O)NC3(c4ccc(C(C)C(=O)O)cc4F)CCOC3)n2C)c(Cl)c1Cl (racemic) [I-55 e54] the IC50 was 1 to 1000 nM.
In the case of CC(C(=O)O)c1ccc(C2(NC(=O)c3cc4c(Cl)c(Cl)ccc4n3C)CCOC2)c(F)c1 (racemic) [I-57 e53], the IC50 is reported as 1 to 1000 nM.
COc1ccc2c(cc(C(=O)NC3(c4ccc(C5(C(=O)O)CC5)cc4)CCOC3)n2C)c1Cl (racemic) [I-58 e70] gave an IC50 of 1 to 1000 nM.
Molecule Cn1c(C(=O)NC2(c3ccc(C4(C(=O)O)CC4)cc3)CCOC2)cc2c(Cl)c(Cl)ccc21 (racemic) [I-59 e38] has an IC50 of 1 to 1000 nM.
COc1ccc2c(cc(C(=O)NC3(c4ccc(C(C)C(=O)O)cc4)CCOC3)n2C)c1Cl (racemic) [I-64 e57] gave an IC50 of 1 to 1000 nM.
For COc1ccc2c(cc(C(=O)NC3(c4ccc(C(C)C(=O)O)cc4)COC3)n2C)c1Cl (racemic) [I-67 e59], the IC50 was 1 to 1000 nM.
CC(C(=O)O)c1ccc(C2(NC(=O)c3cc4c(Cl)c(Cl)ccc4n3C)COC2)cc1 (racemic) [I-68 e58] was tested, and the IC50 was 1 to 1000 nM.
Work on Cn1c(C(=O)NC2(c3ccc(CC(=O)O)cc3C#N)CCOC2)cc2c(Cl)c(Cl)ccc21 (racemic) [I-71 e158, (±)-2-[3-Cyano-4-[3-[(4,5-dichloro-1-methyl-indole-2-carbonyl)amino]tetrahydro-furan-3-yl]phenyl]acetic acid] yielded an IC50 of 1000 to 5000 nM.
For CCC(C(=O)O)c1ccc(C2(NC(=O)c3cc4c(Cl)c(Cl)ccc4n3C)CCOC2)cc1 (racemic) [I-72 e56], the IC50 was 1 to 1000 nM.
In the case of Cn1c(C(=O)NC2(c3ccc(C(=O)O)nc3)CCOC2)cc2c(Cl)c(Cl)ccc21 (racemic) [I-73 e28], the IC50 is reported as 1000 to 5000 nM.
Cn1c(C(=O)NC2(c3ccc(C(=O)O)cn3)CCOC2)cc2c(Cl)c(Cl)ccc21 (racemic) [I-74 e27] was tested, and the IC50 was 1 to 1000 nM.
In the case of COc1ccc2c(cc(C(=O)NC3(c4ccc(C(C)(C)C(=O)O)cc4)CCOC3)n2C)c1Cl (racemic) [I-77 e63], the IC50 is reported as 1 to 1000 nM.
Molecule COc1ccc2c(cc(C(=O)NC3(c4ccc(CC(=O)O)cc4)CCOC3)n2C)c1Cl (racemic) [I-78 e40] has an IC50 of 1 to 1000 nM.
Cn1c(C(=O)NC2(c3ccc(C(=O)O)cc3)CCOC2)cc2c(Cl)c(Cl)c(OCC3COC3)cc21 (racemic) [I-80 e103] showed an IC50 of 1 to 1000 nM.
In the case of Cn1c(C(=O)NC2(c3ccc(C(=O)O)cc3)CCOC2)cc2c(Cl)c(Cl)c(OCc3ncc[nH]3)cc21 (racemic) [I-81 e105], the IC50 is reported as 1 to 1000 nM.
Cn1c(C(=O)NC2(c3ccc(C(C)(C)C(=O)O)cc3)CCOC2)cc2c(Cl)c(Cl)ccc21 (racemic) [I-87 e37] was tested, and the IC50 was 1 to 1000 nM.
Molecule CCc1cc(C2(NC(=O)c3cc4c(Cl)c(Cl)ccc4n3C)CCOC2)ccc1C(=O)O (racemic) [I-88 e156, (±)-4-[3-[(4,5-Dichloro-1-methyl-indole-2-carbonyl)amino]tetrahydro-furan-3-yl]-2-ethyl-benzoic acid] has an IC50 of 1000 to 5000 nM.
In the case of Cn1c(C(=O)NC2(c3ccc(C(=O)O)cc3)CCOC2)cc2c(Cl)c(Cl)c(OCC3CCOC3)cc21 (racemic) [I-92 e101], the IC50 is reported as 1 to 1000 nM.
